Test results: publication PMC4993649 (ChemMedChem, 2016)
Like-named read-outs stand apart in the source and are kept apart here.

Key:
[1] = system: U87 glioma cells; assay: Cell viability assay, U87; details: read-out: Effects on cell growth IC50, U87, 96 h
[2] = system: HCT colon cancer cells; assay: Cell viability assay, HCT; details: read-out: Effects on cell growth IC50, HCT, 96 h
[3] = system: LoVo colon cancer cells; assay: Cell viability assay, LoVo; details: read-out: Effects on cell growth IC50, LoVo, 96 h
[4] = target: T1, purified full-length human ERβ (Homo sapiens, UniProt Q92731); details: for β/α ratio (of RBA values): ERβ RBA / ERα RBA
T1 sequence (Q92731 whole entry): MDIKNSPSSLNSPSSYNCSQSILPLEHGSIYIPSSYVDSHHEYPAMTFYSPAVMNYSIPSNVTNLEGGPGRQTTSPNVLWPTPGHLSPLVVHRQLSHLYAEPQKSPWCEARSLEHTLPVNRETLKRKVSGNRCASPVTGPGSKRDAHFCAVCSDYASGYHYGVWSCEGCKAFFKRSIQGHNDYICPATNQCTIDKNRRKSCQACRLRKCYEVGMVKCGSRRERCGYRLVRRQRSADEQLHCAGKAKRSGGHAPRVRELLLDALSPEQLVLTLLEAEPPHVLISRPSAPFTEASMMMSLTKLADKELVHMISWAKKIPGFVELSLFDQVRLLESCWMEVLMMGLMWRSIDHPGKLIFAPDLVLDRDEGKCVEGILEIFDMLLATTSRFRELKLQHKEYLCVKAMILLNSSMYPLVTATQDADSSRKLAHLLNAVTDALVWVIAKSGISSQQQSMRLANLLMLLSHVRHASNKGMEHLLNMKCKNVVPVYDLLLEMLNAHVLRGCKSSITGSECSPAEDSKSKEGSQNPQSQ

[5] = target: T1, purified full-length human ERβ; assay: biochemical
[6] = target: ERβ/C369-biotin-SaTb with SRC3 NRID-fluorescein (Homo sapiens, UniProt Q92731); assay: tr-FRET ligand titration into ERβ and SRC3; assay type: biochemical; details: read-out: Ligand coactivator recruitment potency (Ligand titration) EC50; ligand titrated into 1 nM ERβ LBD, 0.25 nM SaTb, 100 nM SRC3-fluorescein; mean ± SD
ERβ/C369-biotin-SaTb with SRC3 NRID-fluorescein, sequence (Q9Y6Q9 627-829): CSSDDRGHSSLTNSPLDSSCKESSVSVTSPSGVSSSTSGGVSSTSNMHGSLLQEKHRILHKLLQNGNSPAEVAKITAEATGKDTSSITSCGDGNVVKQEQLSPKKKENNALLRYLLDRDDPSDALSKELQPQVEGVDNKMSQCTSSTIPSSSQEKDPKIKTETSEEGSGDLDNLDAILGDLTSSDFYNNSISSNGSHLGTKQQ
ERβ/C369-biotin-SaTb with SRC3 NRID-fluorescein, sequence (Q92731 256-503): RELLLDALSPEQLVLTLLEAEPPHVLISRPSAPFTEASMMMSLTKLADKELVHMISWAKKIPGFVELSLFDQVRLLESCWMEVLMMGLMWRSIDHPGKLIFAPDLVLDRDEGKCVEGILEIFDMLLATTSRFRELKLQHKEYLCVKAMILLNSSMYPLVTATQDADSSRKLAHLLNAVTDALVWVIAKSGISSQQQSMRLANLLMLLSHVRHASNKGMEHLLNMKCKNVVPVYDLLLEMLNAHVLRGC

[7] = target: ERβ LBD/C369-biotin with SRC3 NRID-fluorescein (Homo sapiens, UniProt Q92731); assay: tr-FRET SRC3 titration into ERβ-ligand complex; details: E2 = 100
ERβ LBD/C369-biotin with SRC3 NRID-fluorescein, sequence (Q9Y6Q9 627-829): as the sequence (Q9Y6Q9 627-829) above
ERβ LBD/C369-biotin with SRC3 NRID-fluorescein, sequence (Q92731 256-503): as the sequence (Q92731 256-503) above

[8] = system: SkBr3 breast cancer cells; assay: Cell viability assay, SkBr3; details: Homo sapiens, SK-BR-3, 96 h, read-out: Effects on cell growth IC50, SkBr3
[9] = system: MDA-MB-231 breast cancer cells; assay: Cell viability assay, MDA-MB-231; details: Homo sapiens, MDA-MB-231, 96 h, read-out: Effects on cell growth IC50, MDA231
[10] = system: MCF7 breast cancer cells; assay: Cell viability assay, MCF7; details: Homo sapiens, MCF7, 96 h, read-out: Effects on cell growth IC50, MCF7

Compound | β/α ratio (of RBA values) [4] | Ki [5] [µM] | EC50 [6] [µM] | Efficacy % (completeness of the curves relative to E2) [7] [%] | also measured
O=C1C[C@@H](c2ccc(O)cc2)Oc2cc(O)ccc21 [Liquiritigenin, reference compound] | – | – | – | – | IC50 ([1]; human glioma, mean ± SD): 115 ± 11.7 µM; IC50 ([2]; human colon cancer, mean ± SD): 75.3 ± 7.1 µM; IC50 ([3]; human colon cancer, mean ± SD): 101 ± 10.2 µM
O/N=C1\CCc2c(-c3ccccc3)ccc(O)c21 [1i, (E)-7-hydroxy-4-phenyl-2,3-dihydro-1H-inden-1-one oxime] | 89 | 0.282 | 0.393 ± 0.124 | 72 | decrease of ERβ affinity compared to 1a ([4]; from RBA values): 24 fold
O/N=C1\CCc2c(-c3ccc(O)cc3)ccc(O)c21 [1a, (E)-7-hydroxy-4-(4-hydroxyphenyl)-2,3-dihydro-1H-inden-1-one oxime] | 16 | 0.0117 | 0.0142 ± 0.003 | 93 | IC50 ([1]; Homo sapiens, U-87 MG): 150.7 ± 1.2 µM; IC50 ([2]; Homo sapiens): 61.5 ± 8.8 µM; IC50 ([3]; Homo sapiens, LoVo): 19.8 ± 2.1 µM; IC50 [8]: 140 ± 11.2 µM; IC50 [9]: 42.3 ± 1.1 µM; IC50 [10]: 70.1 ± 12.4 µM
O/N=C1\CCc2c(-c3ccc(O)c(Cl)c3)ccc(O)c21 [1g, (E)-4-(3-chloro-4-hydroxyphenyl)-7-hydroxy-2,3-dihydro-1H-inden-1-one oxime] | 8.0 | – | – | – | –
O/N=C1\CCc2c(-c3ccc(O)c(F)c3)ccc(O)c21 [1c, (E)-4-(3-fluoro-4-hydroxyphenyl)-7-hydroxy-2,3-dihydro-1H-inden-1-one oxime] | 33 | 0.0106 | 0.0195 ± 0.0026 | 88 | IC50 ([1]; Homo sapiens, U-87 MG): 32.3 ± 1.1 µM; IC50 ([2]; Homo sapiens): 10.8 ± 1.2 µM; IC50 ([3]; Homo sapiens, LoVo): 14.5 ± 3.1 µM; IC50 [8]: 130 ± 9.7 µM; IC50 [9]: 8.1 ± 1.3 µM; IC50 [10]: 23.2 ± 1.4 µM

More lines, main results first:

β/α ratio (of RBA values) [4] | Compound | Ki [5] [µM] | EC50 [6] [µM] | Efficacy % (completeness of the curves relative to E2) [7] [%] | also measured
0.50 | COc1ccc(-c2ccc(O)c3c2CC/C3=N\O)cc1Cl [1h, (E)-4-(3-chloro-4-methoxyphenyl)-7-hydroxy-2,3-dihydro-1H-inden-1-one oxime] | – | – | – | –
6.3 | Cc1cc(-c2ccc(O)c3c2CC/C3=N\O)ccc1O [1e, (E)-7-hydroxy-4-(4-hydroxy-3-methylphenyl)-2,3-dihydro-1H-inden-1-one oxime] | – | – | – | –
1.0 | COc1ccc(-c2ccc(O)c3c2CC/C3=N\O)cc1C [1f, (E)-7-hydroxy-4-(4-methoxy-3-methylphenyl)-2,3-dihydro-1H-inden-1-one oxime] | – | – | – | –
3.0 | COc1ccc(-c2ccc(O)c3c2CC/C3=N\O)cc1 [1b, (E)-7-hydroxy-4-(4-methoxyphenyl)-2,3-dihydro-1H-inden-1-one oxime] | – | – | – | –
0.8 | COc1ccc(-c2ccc(O)c3c2CC/C3=N\O)cc1F [1d, (E)-4-(3-fluoro-4-methoxyphenyl)-7-hydroxy-2,3-dihydro-1H-inden-1-one oxime] | – | – | – | –
